From US10450266B2, “Sulfonate compound, photoacid generator, and resin composition for photolithography” (SAN-APRO LIMITED, priority 2014, dated 2019)

Columns and labels:
Format in all cases: physicochemical
[1] = Thermal decomposition temperature (TG/DTA, 2% weight reduction); settings: point of 2% weight reduction, 10° C./minute, nitrogen atmosphere
Procedure: The synthesized photoacid generator was measured for the change in weight under a temperature increasing condition of 10° C./minute from 30° C. to 500° C. under a nitrogen atmosphere using a thermal gravimetric/differential thermal analyzer (TG/DTA 6200, available from Seiko Instruments Inc.), and a point where the weight was reduced by 2% was defined as the thermal decomposition temperature.

Solvent solubility = settings: for Solvent solubility, PGMEA / Solvent solubility, Butyl acetate / Solvent solubility, Toluene: 25° C.
Procedure: In a test tube, 0.1 g of the synthesized photoacid generator was placed, and an organic solvent (butyl acetate, toluene or PGMEA) was added thereto in 0.2 g portions under a condition where the temperature was adjusted to 25° C. until the photoacid generator was completely dissolved. In this connection, in the case where the photoacid generator was not completely dissolved even when 20 g of the solvent was added, the photoacid generator was evaluated as one that was not dissolved.

[2] = Molar extinction coefficient at i-line (365 nm), UV-visible spectrophotometer; settings: 365 nm (i-line), 0.25 mmol/L in acetonitrile, 1 cm cell
Procedure: The synthesized photoacid generator was diluted to 0.25 mmol/L with acetonitrile, and using an ultraviolet-visible spectrophotometer (UV-2550 available from SHIMADZU CORPORATION), the absorbance in a range of 200 nm to 500 nm was measured with a cell having an optical path length (a cell length) of 1 cm. The molar extinction coefficient of i-line (365 nm) (ε365) was calculated from the following equation. ε365(L·mol^−1·cm^−1)=A365/(0.00025 mol/L×1 cm) [In the equation, A365 represents the absorbance at 365 nm.] <Resist Curing Properties>

Row | Thermal decomposition temperature [1] | Solvent solubility, PGMEA (Solvent solubility) | Solvent solubility, Butyl acetate (Solvent solubility) | Solvent solubility, Toluene (Solvent solubility) | Molar extinction coefficient [2] | solubility to a solvent (in words) (Solvent solubility; summary of Table 1) | Compound
1 | 230 °C | 20 wt % | 20 wt % | 12 wt % | 80 L/mol/cm |  | CN(OS(=O)(=O)CC12CCC(CC1=O)C2(C)C)C(=O)c1ccc2ccccc2c1 (stereo not shown) [A-1]
2 | 225 °C | 15 wt % | 15 wt % | 10 wt % | 120 L/mol/cm |  | COc1ccc2cc(C(=O)N(C)OS(=O)(=O)CC34CCC(CC3=O)C4(C)C)ccc2c1 (stereo not shown) [A-2]
3 | 225 °C | 15 wt % | 15 wt % | 10 wt % | 360 L/mol/cm |  | COc1cc2c(OC)cccc2cc1C(=O)N(C)OS(=O)(=O)CC12CCC(CC1=O)C2(C)C (stereo not shown) [A-3]
4 | 225 °C | 20 wt % | 20 wt % | 10 wt % | 300 L/mol/cm |  | COc1cc2c(OC)cccc2cc1C(=O)N(C)OS(C)(=O)=O [A-4]
5 | 225 °C | 10 wt % | 10 wt % | 10 wt % | 400 L/mol/cm |  | COc1cc2c(OC)cccc2cc1C(=O)N(C)OS(=O)(=O)c1c(F)c(F)c(F)c(F)c1F [A-5]
6 | 210 °C | 15 wt % | 15 wt % | 10 wt % | 450 L/mol/cm |  | CC(=O)c1ccc(Sc2ccc(C(=O)N(C)OS(=O)(=O)CC34CCC(CC3=O)C4(C)C)cc2)cc1 (stereo not shown) [A-6]
7 | 220 °C | 15 wt % | 15 wt % | 10 wt % | 6500 L/mol/cm |  | COc1ccc2cc(C(=O)N(C)OS(=O)(=O)CC34CCC(CC3=O)C4(C)C)c(=O)oc2c1 (stereo not shown) [A-7]
8 | 240 °C | 5 wt % | 5 wt % | 10 wt % | 9000 L/mol/cm |  | CN(OS(=O)(=O)CC12CCC(CC1=O)C2(C)C)C(=O)c1c2ccccc2cc2ccccc12 (stereo not shown) [A-8]
9 | 225 °C | 0.5 wt % | 1 wt % | 0.5 wt % | 330 L/mol/cm | insufficient | CC1(C)C2CCC1(CS(=O)(=O)OC1C(=O)c3cccc4cccc(c34)C1=O)C(=O)C2 (stereo not shown) [A′-1, reference compound]
